Consider 50 molecules from patent US6984649B1, “Pyridine derivatives” (Bayer Aktiengesellschaft, priority 2000, dated 2006).

One may read the IC50 as the concentration at which inhibition is half-maximal.

The experiment has as its target T1, human IKK-β (Homo sapiens, UniProt O14920).
T1 construct: A cDNA fragment encoding human IKK-β open reading frame was generated by PCR; His tag (from pcDNA3.1/His C); made in house; host or cells: Sf21 insect cells (baculovirus); substrate made in E. coli
T1 sequence (O14920 1-756): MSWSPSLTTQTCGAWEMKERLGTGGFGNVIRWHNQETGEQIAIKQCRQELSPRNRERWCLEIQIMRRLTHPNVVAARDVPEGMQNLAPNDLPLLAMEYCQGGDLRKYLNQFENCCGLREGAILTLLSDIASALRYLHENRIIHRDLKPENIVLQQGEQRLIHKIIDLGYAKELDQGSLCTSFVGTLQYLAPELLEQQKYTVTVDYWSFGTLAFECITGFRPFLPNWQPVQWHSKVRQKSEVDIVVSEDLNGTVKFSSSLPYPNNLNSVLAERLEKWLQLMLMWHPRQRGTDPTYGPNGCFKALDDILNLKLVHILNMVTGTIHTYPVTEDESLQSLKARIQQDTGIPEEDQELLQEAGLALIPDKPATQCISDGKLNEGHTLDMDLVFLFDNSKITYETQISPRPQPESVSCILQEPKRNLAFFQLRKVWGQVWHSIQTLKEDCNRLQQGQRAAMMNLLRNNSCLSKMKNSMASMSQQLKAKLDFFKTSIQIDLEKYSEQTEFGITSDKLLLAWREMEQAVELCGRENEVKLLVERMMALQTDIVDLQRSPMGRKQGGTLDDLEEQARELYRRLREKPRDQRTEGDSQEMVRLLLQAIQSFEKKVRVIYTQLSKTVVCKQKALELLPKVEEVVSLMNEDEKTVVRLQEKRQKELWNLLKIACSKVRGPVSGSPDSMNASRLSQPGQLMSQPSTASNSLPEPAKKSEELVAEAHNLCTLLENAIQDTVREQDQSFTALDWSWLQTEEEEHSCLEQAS
Nature of the experiment: IKK-β kinase inhibitory assay. Particulars: compounds as yielded by solid phase synthesis, purity about 40 to 90%, read-out: In vitro activity grade (In vitro IC50). It is filed as biochemical. In a few lines: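 His-tagged human IKK-β from baculovirus-infected Sf21 cells (0.6 μg/ml final) phosphorylates biotinylated GST-IκBα(1-54) (0.2 μM) in Tris-HCl pH 7.6 buffer with MgCl2. ATP with [γ-33P]ATP added, then 2 h at room temperature. Biotinylated substrate captured on streptavidin plates; bound radioactivity counted by scintillation.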
With `O=c1[nH]c2nc(-c3c(O)cccc3OCC3CC3)cc(C3CCCNC3)c2cc1[N+](=O)[O-]` (centres unmarked) [Example 25-05], the IC50 is below 500 nM.

Turning to `N#Cc1cc2c(C3CCCNC3)cc(-c3c(O)cccc3OCC3CC3)nc2[nH]c1=O` (centres unmarked) [Example 25-06], the IC50 was below 500 nM.

`O=c1[nH]c2nc(-c3c(O)cccc3OCC3CC3)cc(C3CCCNC3)c2cc1S(=O)(=O)c1ccccc1` (centres unmarked) [Example 25-07]: the IC50 was below 500 nM.

Turning to `NC(=O)c1cc2c(C3CCCNC3)cc(-c3c(O)cccc3OCC3CC3)nc2[nH]c1=O` (centres unmarked) [Example 25-08], the IC50 is below 500 nM.

With `CCOC(=O)C1Cc2c(C3CCCNC3)cc(-c3c(O)cccc3OCC3CC3)nc2NC1=O` (centres unmarked) [Example 26-03], the IC50 was below 500 nM.

On to `CCOC(=O)C1Cc2c(C3CCNCC3)cc(-c3c(O)cccc3OCC3CC3)nc2NC1=O` (centres unmarked) [Example 26-04], for which the IC50 was below 500 nM.

Turning to `NC(=O)C1Cc2c(C3CCCNC3)cc(-c3c(O)cccc3OCC3CC3)nc2NC1=O` (centres unmarked) [Example 26-05], the IC50 is below 500 nM.

For the molecule `CCCOc1cccc(O)c1-c1cc(C2CCCNC2)c2c(n1)NC(=O)C(C(=O)OCC)C2` (centres unmarked) [Example 26-06], the IC50 was below 500 nM.

Turning to `CCCOc1cccc(O)c1-c1cc(C2CCCNC2)c2c(n1)NC(=O)CC2` (centres unmarked) [Example 27-02], the IC50 is below 500 nM.

For `O=C1CCc2c(C3CCCNC3)cc(-c3c(O)cccc3OCC3CC3)nc2N1` (centres unmarked) [Example 27-03, 7-[2-(cyclopropylmethoxy)-6-hydroxyphenyl]-5-(3-piperidinyl)-3,4-dihydro-1,8-naphthyridin-2(1H)-one], the IC50 is below 500 nM.

As for `O=C1CCc2c(C3CCNCC3)cc(-c3c(O)cccc3OCC3CC3)nc2N1` [Example 27-04], the IC50 is below 500 nM.

For the molecule `CCCOc1cccc(O)c1-c1cc(C2CCNCC2)c2c(n1)NC(=O)CC2` [Example 27-05], the IC50 is below 500 nM.

`CNC(=O)c1cc2c(C3CCCNC3)cc(-c3c(O)cccc3OCC3CC3)nc2[nH]c1=O` (centres unmarked) [Example 31-03]: the IC50 is below 500 nM.

As for `CN(C)C(=O)c1cc2c(C3CCCNC3)cc(-c3c(O)cccc3OCC3CC3)nc2[nH]c1=O` (centres unmarked) [Example 31-04], the IC50 is below 500 nM.

With `O=C(c1cc2c(C3CCCNC3)cc(-c3c(O)cccc3OCC3CC3)nc2[nH]c1=O)N1CCCC1` (centres unmarked) [Example 31-05], the IC50 is below 500 nM.

With `O=C(NCc1ccccc1)c1cc2c(C3CCCNC3)cc(-c3c(O)cccc3OCC3CC3)nc2[nH]c1=O` (centres unmarked) [Example 31-06], the IC50 was below 500 nM.

In the case of `COCCNC(=O)c1cc2c(C3CCCNC3)cc(-c3c(O)cccc3OCC3CC3)nc2[nH]c1=O` (centres unmarked) [Example 31-07], the IC50 is below 500 nM.

Consider `O=C(c1cc2c(C3CCCNC3)cc(-c3c(O)cccc3OCC3CC3)nc2[nH]c1=O)N1CCOCC1` (centres unmarked) [Example 31-08], for which the IC50 is below 500 nM.

For `O=C(c1cc2c(C3CCCNC3)cc(-c3c(O)cccc3OCC3CC3)nc2[nH]c1=O)N1CCNCC1` (centres unmarked) [Example 31-09], the 50% inhibitory concentration (IC50) was below 500 nM.

Regarding `CC(C)NC(=O)c1cc2c(C3CCCNC3)cc(-c3c(O)cccc3OCC3CC3)nc2[nH]c1=O` (centres unmarked) [Example 31-10], the IC50 was below 500 nM.

On to `CN(C)CCNC(=O)c1cc2c(C3CCCNC3)cc(-c3c(O)cccc3OCC3CC3)nc2[nH]c1=O` (centres unmarked) [Example 31-11], for which the IC50 is below 500 nM.

Turning to `O=C(NC1Cc2ccccc2C1)c1cc2c(C3CCCNC3)cc(-c3c(O)cccc3OCC3CC3)nc2[nH]c1=O` (centres unmarked) [Example 31-12], the IC50 was below 500 nM.

For the molecule `O=C(NC(c1ccccc1)c1ccccc1)c1cc2c(C3CCCNC3)cc(-c3c(O)cccc3OCC3CC3)nc2[nH]c1=O` (centres unmarked) [Example 31-13], the IC50 is below 500 nM.

Regarding `C[C@H](NC(=O)c1cc2c(C3CCCNC3)cc(-c3c(O)cccc3OCC3CC3)nc2[nH]c1=O)c1ccccc1` (some centres unmarked) [Example 31-14], the IC50 is below 500 nM.

As for `C[C@@H](NC(=O)c1cc2c(C3CCCNC3)cc(-c3c(O)cccc3OCC3CC3)nc2[nH]c1=O)c1ccccc1` (some centres unmarked) [Example 31-15], the IC50 is below 500 nM.

`C[C@H](NC(=O)c1cc2c(C3CCCNC3)cc(-c3c(O)cccc3OCC3CC3)nc2[nH]c1=O)C(=O)O` (some centres unmarked) [Example 31-16]: the IC50 is below 500 nM.

Take `O=C(NCCc1ccccc1)c1cc2c(C3CCCNC3)cc(-c3c(O)cccc3OCC3CC3)nc2[nH]c1=O` (centres unmarked) [Example 31-17]: the IC50 was below 500 nM.

Regarding `O=C(NC1CCCCC1)c1cc2c(C3CCCNC3)cc(-c3c(O)cccc3OCC3CC3)nc2[nH]c1=O` (centres unmarked) [Example 31-18], the IC50 was below 500 nM.

Take `O=C(NCC1CCCCC1)c1cc2c(C3CCCNC3)cc(-c3c(O)cccc3OCC3CC3)nc2[nH]c1=O` (centres unmarked) [Example 31-19]: the half-maximal inhibitory concentration (IC50) is below 500 nM.

Consider `O=C(NCCO)c1cc2c(C3CCCNC3)cc(-c3c(O)cccc3OCC3CC3)nc2[nH]c1=O` (centres unmarked) [Example 31-20], for which the IC50 was below 500 nM.

With `O=C(NC1CC1)c1cc2c(C3CCCNC3)cc(-c3c(O)cccc3OCC3CC3)nc2[nH]c1=O` (centres unmarked) [Example 31-21], the IC50 is below 500 nM.

`O=C(NC1CCC1)c1cc2c(C3CCCNC3)cc(-c3c(O)cccc3OCC3CC3)nc2[nH]c1=O` (centres unmarked) [Example 31-22]: the IC50 was below 500 nM.

On to `O=C(NC1CCCC1)c1cc2c(C3CCCNC3)cc(-c3c(O)cccc3OCC3CC3)nc2[nH]c1=O` (centres unmarked) [Example 31-23], for which the IC50 is below 500 nM.

Regarding `O=C(NC1CCCCCC1)c1cc2c(C3CCCNC3)cc(-c3c(O)cccc3OCC3CC3)nc2[nH]c1=O` (centres unmarked) [Example 31-24], the IC50 is below 500 nM.

Regarding `CCC(CC)NC(=O)c1cc2c(C3CCCNC3)cc(-c3c(O)cccc3OCC3CC3)nc2[nH]c1=O` (centres unmarked) [Example 31-25], the IC50 is below 500 nM.

Regarding `CCCC(CCC)NC(=O)c1cc2c(C3CCCNC3)cc(-c3c(O)cccc3OCC3CC3)nc2[nH]c1=O` (centres unmarked) [Example 31-26], the IC50 was below 500 nM.

With `O=C(NCC(F)(F)F)c1cc2c(C3CCCNC3)cc(-c3c(O)cccc3OCC3CC3)nc2[nH]c1=O` (centres unmarked) [Example 31-27], the IC50 is below 500 nM.

On to `N#Cc1c(N2CCCC(C(N)=O)C2)cc(-c2ccccc2O)nc1N` (centres unmarked) [Example 34-06], for which the half-inhibitory concentration (IC50) was in the range of 2000 to 10000 nM.

In the case of `N#Cc1c(NC2CCNCC2)cc(-c2ccccc2O)nc1N` [Example 34-07], the IC50 was below 500 nM.

For `N#Cc1c(N2CCCNCC2)cc(-c2ccccc2O)nc1N` [Example 34-08], the IC50 fell in the range of 500 to 2000 nM.

Take `N#Cc1c(N2CCNCC2)cc(-c2ccccc2O)nc1N` [Example 34-09]: the IC50 is below 500 nM.

As for `N#Cc1c(NCCN)cc(-c2ccccc2O)nc1N` [Example 34-10], the IC50 was below 500 nM.

On to `N#Cc1c(NCCCN)cc(-c2ccccc2O)nc1N` [Example 34-11], for which the IC50 is below 500 nM.

With `CNCCNc1cc(-c2ccccc2O)nc(N)c1C#N` [Example 34-12], the IC50 was below 500 nM.

Consider `N#Cc1c(NCCNCc2ccccc2)cc(-c2ccccc2O)nc1N` [Example 34-13], for which the IC50 is below 500 nM.

As to `N#Cc1c(NCCNCc2ccccc2)cc(-c2c(O)cccc2OCC2CC2)nc1N` [Example 34-15], the IC50 was below 500 nM.

Turning to `N#Cc1c(NCCNC(=O)c2ccccc2)cc(-c2c(O)cccc2OCC2CC2)nc1N` [Example 34-16], the IC50 is below 500 nM.

With `N#Cc1c(NCCNS(=O)(=O)c2ccccc2)cc(-c2c(O)cccc2OCC2CC2)nc1N` [Example 34-17], the IC50 is below 500 nM.

As for `N#Cc1c(NCCNC(=O)Nc2ccccc2)cc(-c2c(O)cccc2OCC2CC2)nc1N` [Example 34-18], the concentration for half-maximal inhibition (IC50) is below 500 nM.

Regarding `CC(=O)NCCNc1cc(-c2c(O)cccc2OCC2CC2)nc(N)c1C#N` [Example 34-19], the IC50 was below 500 nM.
